Laboratory results reported in patent US12240846B2 (Enliven Inc., priority 2020, dated 2025).
Where a name gives a salt, the structure may show the parent alone.

Key:
[1] = target: ABL1 (T315I) (Homo sapiens, UniProt P00519, T315I); test: Luminescence-based ABL kinase assay (300 μM ATP), ADP-Glo; format: biochemical
[2] = system: K562 cells; test: K562 cell proliferation assay (CellTiter-Glo); format: cell-based; details: Homo sapiens, K562 cell viability, 72 hours, read-out: Cell Line (IC50, nM) K562
Description: (§1) K562 and HL60 Cell Proliferation Assay
(§2) K562 and HL60 cells, cultured in Iscove's Modified Dulbecco's Media (IMDM) supplemented with 10% FBS, were harvested at 50-80% confluency and plated at 2,000 cells per well (K562) or 1,500 cells per well (HL60) in 384-well tissue culture plates. A subset of wells contained media only (low control, LC). […] The plates were placed in a 37° C. incubator with 5% CO2 for 72 hours. Cell viability was measured using a CellTiter-Glo luminescent cell viability assay (Promega), which allows for relative quantification of metabolically active cells by luminescence-based measurements of intracellular ATP concentrations. Briefly, plates were removed from the incubator and equilibrated for 15 minutes at room temperature prior to the addition of 40 μL of CellTiter-Glo reagent. Plates were then incubated for 30 minutes at room temperature. Luminescence was measured using an EnSpire plate reader (Perkin Elmer). As noted above, luminescence values from wells with DMSO only or media without cells were used as high and low controls (HC and LC), respectively. Normalized percent viability was calculated as follows: percent viability=100×(Lumsample−LumLC)/(LumHC−LumLC).

[3] = target: T1, ABL1 (Homo sapiens, UniProt P00519); test: Luminescence-based ABL kinase assay (300 μM ATP), ADP-Glo; format: biochemical
T1 construct: purchased Carna Biosciences
From the text: Compounds were serially diluted in DMSO. […] Luminescence signal positively correlates with kinase activity.

[4] = system: HL60 cells; test: HL60 cell proliferation assay (CellTiter-Glo); format: cell-based; details: Homo sapiens, HL-60, HL60 cell viability, 72 hours, read-out: Cell Line (IC50, nM) HL60
Description: as §1, §2

In the case of `COc1cccc(C)c1-c1cc2cc(NC(=O)[C@@H]3C[C@@H]3F)ncc2n1C` [Compound 25, (1S,2S)-2-fluoro-N-[2-(2-methoxy-6-methylphenyl)-1-methylpyrrolo[2,3-c]pyridin-5-yl]cyclopropane-1-carboxamide], the IC50 [1] is reported as 10.8 nM, the IC50 [2] is reported as 91.7 nM and the IC50 [3] is reported as 10.9 nM. For the same compound, the IC50 [4] was 523 nM.

`COc1cc2[nH]cnc2cc1-c1cc2cc(NC(=O)[C@@H]3C[C@@H]3F)ncc2n1C` [Compound 28, (1S,2S)-2-fluoro-N-(2-(6-methoxy-1H-benzo[d]imidazol-5-yl)-1-methyl-1H-pyrrolo[2,3-c]pyridin-5-yl)cyclopropanecarboxamide formate] gave an IC50 [1] of 19.8 nM, an IC50 [2] of 30.4 nM and an IC50 [3] of 9.95 nM. For the same compound, the IC50 [4] was 233 nM.

`COc1c(-c2cc3cc(NC(=O)[C@@H]4C[C@@H]4F)ncc3n2C)ccc2[nH]cnc12` [Compound 29, (1S,2S)-2-fluoro-N-[2-(4-methoxy-1H-1,3-benzodiazol-5-yl)-1-methylpyrrolo[2,3-c]pyridin-5-yl]cyclopropane-1-carboxamide] gave an IC50 [1] of 22.2 nM, an IC50 [2] of 258 nM and an IC50 [3] of 52 nM. For the same compound, the IC50 [4] was 800 nM.

`COc1c(-c2cc3cc(NC(=O)[C@@H]4C[C@@H]4F)ncc3n2C)ccc2cn[nH]c12` [Compound 30, (1S,2S)-2-fluoro-N-(2-(7-methoxy-1H-indazol-6-yl)-1-methyl-1H-pyrrolo[2,3-c]pyridin-5-yl)cyclopropane-1-carboxamide] gave an IC50 [1] of 139 nM, an IC50 [2] of 245 nM and an IC50 [3] of 119 nM. For the same compound, the IC50 [4] was 320 nM.

Work on `COc1ncccc1-c1cc2cc(NC(=O)[C@H]3C[C@H]3F)ncc2n1C` [Compound 34, (1R,2R)-2-fluoro-N-[2-(2-methoxypyridin-3-yl)-1-methylpyrrolo[2,3-c]pyridin-5-yl]cyclopropane-1-carboxamide] yielded an IC50 [1] of 124 nM, an IC50 [2] of 208 nM and an IC50 [3] of 40.8 nM. It also gave an IC50 [4] of 3840 nM.

`CCOc1ncccc1-c1cc2cc(NC(=O)[C@@H]3C[C@@H]3F)ncc2n1C` [Compound 36, (1S,2S)-N-[2-(2-ethoxypyridin-3-yl)-1-methylpyrrolo[2,3-c]pyridin-5-yl]-2-fluorocyclopropane-1-carboxamide] showed an IC50 [1] of 308 nM, an IC50 [2] of 105 nM and an IC50 [3] of 6.33 nM. It also gave an IC50 [4] of 3630 nM.

For `COc1ccccc1-c1c(C)c2cc(NC(=O)[C@@H]3C[C@@H]3F)ncc2n1C` [Compound 43, (1S,2S)-2-fluoro-N-(2-(2-methoxyphenyl)-1,3-dimethyl-1H-pyrrolo[2,3-c]pyridin-5-yl)cyclopropane-1-carboxamide], the IC50 [1] was 24.7 nM, the IC50 [2] was 317 nM and the IC50 [3] was 50.2 nM. The IC50 [4] was > 10000 nM.

For `COc1ccccc1-c1c(C)c2cc(NC(=O)[C@H]3C[C@H]3F)ncc2n1C` [Compound 44, (1R,2R)-2-fluoro-N-[2-(2-methoxyphenyl)-1,3-dimethylpyrrolo[2,3-c]pyridin-5-yl]cyclopropane-1-carboxamide], the IC50 [1] was 36 nM, the IC50 [2] was 368 nM and the IC50 [3] was 74.5 nM. The IC50 [4] was > 10000 nM.

`COc1ccccc1-c1c(C#N)c2cc(NC(=O)C3CC3)ncc2n1C` [Compound 47, N-[3-cyano-2-(2-methoxyphenyl)-1-methylpyrrolo[2,3-c]pyridin-5-yl]cyclopropanecarboxamide] gave an IC50 [1] of 548 nM, an IC50 [2] of 1360 nM and an IC50 [3] of 244 nM. For the same compound, the IC50 [4] was > 10000 nM.

Compound `COc1ccccc1-c1[nH]c2cc(NC(=O)[C@@H]3C[C@@H]3F)ncc2c1C` [Compound 48, (1S,2S)-2-fluoro-N-[2-(2-methoxyphenyl)-3-methyl-1H-pyrrolo[3,2-c]pyridin-6-yl]cyclopropane-1-carboxamide] has an IC50 [1] of 4.48 nM, an IC50 [2] of 85.8 nM and an IC50 [3] of 31.7 nM. It also gave an IC50 [4] of 808 nM.

Compound `COc1ncccc1-c1c(C)c2cnc(NC(=O)[C@@H]3C[C@@H]3F)cc2n1C` [Compound 56, (1S,2S)-2-fluoro-N-[2-(2-methoxypyridin-3-yl)-1,3-dimethylpyrrolo[3,2-c]pyridin-6-yl]cyclopropane-1-carboxamide] has an IC50 [1] of 141 nM, an IC50 [2] of 240 nM and an IC50 [3] of 198 nM. For the same compound, the IC50 [4] was 6200 nM.

In the case of `COc1ncc(F)cc1-c1c(C)c2cnc(NC(=O)[C@@H]3C[C@@H]3F)cc2n1C` [Compound 57, (1S,2S)-2-fluoro-N-(2-(5-fluoro-2-methoxypyridin-3-yl)-1,3-dimethyl-1H-pyrrolo[3,2-c]pyridin-6-yl)cyclopropane-1-carboxamide], the IC50 [1] is reported as 83.7 nM, the IC50 [2] is reported as 128 nM and the IC50 [3] is reported as 111 nM. The IC50 [4] was 4270 nM.

With `COc1nccc(C)c1-c1cc2cc(NC(=O)[C@@H]3C[C@@H]3F)ncc2n1C` [Compound 59, (1S,2S)-2-fluoro-N-[2-(2-methoxy-4-methylpyridin-3-yl)-1-methylpyrrolo[2,3-c]pyridin-5-yl]cyclopropane-1-carboxamide] the IC50 [1] was 40.7 nM, the IC50 [2] was 120 nM and the IC50 [3] was 40.2 nM. It also gave an IC50 [4] of 1460 nM.

In the case of `COc1ncc(F)cc1-c1c(C)c2cc(NC(=O)[C@@H]3C[C@@H]3F)ncc2n1C` [Compound 60, (1S,2S)-2-fluoro-N-[2-(5-fluoro-2-methoxypyridin-3-yl)-1,3-dimethylpyrrolo[2,3-c]pyridin-5-yl]cyclopropane-1-carboxamide], the IC50 [1] is reported as 193 nM, the IC50 [2] is reported as 718 nM and the IC50 [3] is reported as 191 nM. The IC50 [4] was 6490 nM.

Compound `COc1ncccc1-c1c(C)c2cc(NC(=O)[C@@H]3C[C@@H]3F)ncc2n1C` [Compound 61, (1S,2S)-2-fluoro-N-(2-(2-methoxypyridin-3-yl)-1,3-dimethyl-1H-pyrrolo[2,3-c]pyridin-5-yl)cyclopropanecarboxamide] has an IC50 [1] of 308 nM, an IC50 [2] of 576 nM and an IC50 [3] of 207 nM. It also gave an IC50 [4] of 4860 nM.

With `[2H]C([2H])([2H])n1c(-c2cccnc2OC)cc2cc(NC(=O)[C@@H]3C[C@@H]3F)ncc21` [Compound 64, (1S,2S)-2-fluoro-N-(2-(2-methoxypyridin-3-yl)-1-(methyl-d3)-1H-pyrrolo[2,3-c]pyridin-5-yl)cyclopropane-1-carboxamide] the IC50 [1] was 47.8 nM, the IC50 [2] was 139 nM and the IC50 [3] was 32.5 nM. For the same compound, the IC50 [4] was 1610 nM.

In the case of `[2H]C([2H])([2H])n1c(-c2cc(F)cnc2OC)cc2cc(NC(=O)[C@@H]3C[C@@H]3F)ncc21` [Compound 65, (1S,2S)-2-fluoro-N-(2-(5-fluoro-2-methoxypyridin-3-yl)-1-(methyl-d3)-1H-pyrrolo[2,3-c]pyridin-5-yl)cyclopropane-1-carboxamide], the IC50 [1] is reported as 47.6 nM, the IC50 [2] is reported as 217 nM and the IC50 [3] is reported as 49.2 nM. For the same compound, the IC50 [4] was > 10000 nM.

`COc1ncc(Cl)cc1-c1cc2cc(NC(=O)[C@@H]3C[C@@H]3F)ncc2n1C` [Compound 66, (1S,2S)-N-[2-(5-chloro-2-methoxypyridin-3-yl)-1-methylpyrrolo[2,3-c]pyridin-5-yl]-2-fluorocyclopropane-1-carboxamide] was tested, and the IC50 [1] was 68 nM, the IC50 [2] was 100 nM and the IC50 [3] was 25.4 nM. It also gave an IC50 [4] of 1750 nM.

`COc1ncc(C#N)cc1-c1cc2cc(NC(=O)[C@@H]3C[C@@H]3F)ncc2n1C` [Compound 67, (1S,2S)-N-[2-(5-cyano-2-methoxypyridin-3-yl)-1-methylpyrrolo[2,3-c]pyridin-5-yl]-2-fluorocyclopropane-1-carboxamide] gave an IC50 [1] of 513 nM, an IC50 [2] of 207 nM and an IC50 [3] of 126 nM. It also gave an IC50 [4] of 5280 nM.

`COc1cc2scnc2cc1-c1cc2cc(NC(=O)[C@@H]3C[C@@H]3F)ncc2n1C` [Compound 70, (1S,2S)-2-fluoro-N-[2-(6-methoxy-1,3-benzothiazol-5-yl)-1-methylpyrrolo[2,3-c]pyridin-5-yl]cyclopropane-1-carboxamide] was tested, and the IC50 [1] was 316 nM, the IC50 [2] was 193 nM and the IC50 [3] was 87.4 nM. It also gave an IC50 [4] of 1030 nM.

Compound `Cn1c(-c2cccc3[nH]cnc23)cc2cc(NC(=O)[C@@H]3C[C@@H]3F)ncc21` [Compound 73, (1S,2S)-N-[2-(1H-1,3-benzodiazol-4-yl)-1-methylpyrrolo[2,3-c]pyridin-5-yl]-2-fluorocyclopropane-1-carboxamide] has an IC50 [1] of 315 nM, an IC50 [2] of 3710 nM and an IC50 [3] of 519 nM. For the same compound, the IC50 [4] was > 10000 nM.

`COc1cc2[nH]ncc2cc1-c1cc2cc(NC(=O)[C@@H]3C[C@@H]3F)ncc2n1C` [Compound 74, (1S,2S)-2-fluoro-N-[2-(6-methoxy-1H-indazol-5-yl)-1-methylpyrrolo[2,3-c]pyridin-5-yl]cyclopropane-1-carboxamide] showed an IC50 [1] of 30.2 nM, an IC50 [2] of 44.7 nM and an IC50 [3] of 19.6 nM. For the same compound, the IC50 [4] was 59.6 nM.

`COc1ccccc1-c1cc2cc(NC(=O)NCCN3CCOCC3)ncc2n1C` [Compound 80, 1-(2-(2-methoxyphenyl)-1-methyl-1H-pyrrolo[2,3-c]pyridin-5-yl)-3-(2-morpholinoethyl)urea] gave an IC50 [1] of 193 nM, an IC50 [2] of 1610 nM and an IC50 [3] of 155 nM. The IC50 [4] was > 10000 nM.

Work on `COc1cccc(OC)c1-c1cc2cc(NC(=O)NCCN3CCNCC3)ncc2n1C` [Compound 81, 3-[2-(2,6-dimethoxyphenyl)-1-methylpyrrolo[2,3-c]pyridin-5-yl]-1-[2-(piperazin-1-yl)ethyl]urea] yielded an IC50 [1] of 23.5 nM, an IC50 [2] of 40.4 nM and an IC50 [3] of 17.2 nM. The IC50 [4] was > 10000 nM.
